{"source": "paper PMC7343278", "about": "“A Meroisoprenoid, Heptenolides, and C-Benzylated Flavonoids from Sphaerocoryne gracilis ssp. gracilis” (Journal of Natural Products, 2020)", "key": {"[1]": {"tested_on": "Plasmodium falciparum chloroquine-sensitive (3D7) strain", "test": "Antiplasmodial high-content imaging assay, 3D7 strain", "type": "cell-based", "conditions": "for IC50: Plasmodium falciparum; for inhibition of plasmodial growth at 20 μM: 20 μM concentration, strain not specified (3D7/Dd2)"}, "[2]": {"tested_on": "Plasmodium falciparum chloroquine-resistant (Dd2) strain", "test": "Antiplasmodial high-content imaging assay, Dd2 strain", "type": "cell-based", "method": "(§1) Antiplasmodial activity was determined using a high-content imaging assay, as described previously.[10],[24] The cytotoxicity of the antiplasmodial compounds was evaluated against human embryonic kidney cells (HEK-293) following an established protocol.[10],[24] Human red blood cells for culture of P. falciparum were provided by the Australian Red Cross Blood Bank in accordance with their routine Material Transfer Agreement (MTA) for nonclinical blood product supply. These bioassay studies were approved by the Griffith University Biosafety and Human Ethics Committee (GU ref no. ESK/03/12/HREC; 03/08/11019)."}, "[3]": {"tested_on": "HEK-293 human embryonic kidney cells", "test": "Cytotoxicity against human embryonic kidney cells", "type": "cell-based", "conditions": "for inhibition at 20 µM: read-out: Percentage growth inhibition at 20 μM, HEK-293", "method": "as §1"}, "[4]": {"tested_on": "cap-dependent and independent translation initiation", "test": "Translation inhibition assay (luciferase model)", "type": "biochemical", "conditions": "in vitro", "method": "Luciferase inhibition activity assays were performed following standard procedures described previously.[9],[10]"}, "[5]": {"conditions": "P. falciparum 3D7 (chloroquine-sensitive), read-out: IC50 3D7"}, "[6]": {"conditions": "P. falciparum Dd2 (chloroquine-resistant), read-out: IC50 Dd2"}}, "note": "Where two headings read alike, the source gives them in different places.", "data": [{"molecule": "COc1ccc2nc3cc(Cl)ccc3c(Nc3cc(CN4CCCC4)c(O)c(CN4CCCC4)c3)c2n1", "note": "[pyronaridine]", "values": [{"measurement": "IC50", "setting": "[1]; [5]", "value": 3.6, "unit": "nM"}, {"measurement": "IC50", "setting": "[2]; [6]", "value": 7.5, "unit": "nM"}, {"measurement": "IC50", "setting": "[3]; HEK293, HEK-293 cells", "value": 1800, "unit": "nM"}]}, {"molecule": "O=c1cc(-c2ccccc2)oc2cc(O)cc(O)c12", "note": "[compound 12, 5,7-dihydroxyflavone]", "values": [{"measurement": "translational inhibitory activity", "setting": "[4]", "value": "none showed significant translational inhibitory activity"}]}, {"molecule": "C[C@H]1[C@H](OC(=O)CCC(=O)O)O[C@@H]2O[C@@]3(C)CC[C@H]4[C@H](C)CC[C@@H]1[C@@]24OO3", "note": "[artesunate]", "values": [{"measurement": "inhibition at 20 µM", "setting": "[3]; HEK293, HEK-293 cells", "value": 75, "unit": "%"}]}, {"molecule": "O=c1cc(-c2ccccc2)oc2c(Cc3cccc(O)c3O)c(O)cc(O)c12", "note": "[compound 5, 8-(2,3-dihydroxybenzyl)-5,7-dihydroxy-2-phenyl-4H-chromen-4-one]", "values": [{"measurement": "inhibition of plasmodial growth at 20 μM", "setting": "[1]", "value": "inhibited plasmodial growth moderately"}, {"measurement": "translational inhibitory activity", "setting": "[4]", "value": "none showed significant translational inhibitory activity"}]}, {"molecule": "O=C1C=C/C(=C/[C@H](O)COC(=O)c2ccccc2)O1", "note": "[compound 9, (Z)-melodorinol]", "values": [{"measurement": "translational inhibitory activity", "setting": "[4]", "value": "none showed significant translational inhibitory activity"}]}, {"molecule": "O=C1C[C@@H](c2ccccc2)Oc2cc(O)c(Cc3cccc(O)c3O)c(O)c21", "note": "[compound 4, (S)-6-(2,3-dihydroxybenzyl)-5,7-dihydroxy-2-phenylchroman-4-one]", "values": [{"measurement": "inhibition of plasmodial growth at 20 μM", "setting": "[1]", "value": "inhibited plasmodial growth moderately"}, {"measurement": "translational inhibitory activity", "setting": "[4]", "value": "none showed significant translational inhibitory activity"}]}, {"molecule": "CCc1nc(N)nc(N)c1-c1ccc(Cl)cc1", "note": "[pyrimethamine]", "values": [{"measurement": "IC50", "setting": "[3]; HEK293, HEK-293 cells", "value": 4200, "unit": "nM"}]}, {"molecule": "O=C1C[C@@H](c2ccccc2)Oc2c(Cc3cccc(O)c3O)c(O)c(Cc3cccc(O)c3O)c(O)c21", "note": "[compound 6, 3″-hydroxygracinol]", "values": [{"measurement": "translational inhibitory activity", "setting": "[4]", "value": "none showed significant translational inhibitory activity"}]}, {"molecule": "C[C@H]1[C@@H](O)O[C@@H]2O[C@@]3(C)CC[C@H]4[C@H](C)CC[C@@H]1[C@@]24OO3", "note": "[DHA]", "values": [{"measurement": "inhibition at 20 µM", "setting": "[3]; HEK293, HEK-293 cells", "value": 50, "unit": "%"}]}, {"molecule": "COc1ccc(C[C@H](N)C(=O)N[C@H]2[C@@H](O)[C@H](n3cnc4c(N(C)C)ncnc43)O[C@@H]2CO)cc1", "note": "[puromycin]", "values": [{"measurement": "IC50", "setting": "[1]; [5]", "value": 23, "unit": "nM"}, {"measurement": "IC50", "setting": "[2]; [6]", "value": 45, "unit": "nM"}, {"measurement": "IC50", "setting": "[3]; HEK293, HEK-293 cells", "value": 360, "unit": "nM"}]}, {"molecule": "CCN(CC)CCCC(C)Nc1ccnc2cc(Cl)ccc12", "note": "(stereo not drawn) [chloroquine]", "values": [{"measurement": "IC50", "setting": "[1]; 3D7, read-out: IC50 3D7", "value": 4.5, "unit": "nM"}, {"measurement": "IC50", "setting": "[2]; DD2, read-out: IC50 Dd2", "value": 46, "unit": "nM"}, {"measurement": "inhibition at 40 µM", "setting": "[3]; HEK293, read-out: Percentage growth inhibition at 40 μM, HEK-293", "value": 60, "unit": "%"}]}, {"molecule": "COC(=O)/C=C/C(=O)C[C@H](O)COC(=O)c1ccccc1", "note": "[compound 10, 7-hydroxy-6-hydromelodienone]", "values": [{"measurement": "inhibition at 40 µM", "setting": "[3]; HEK293, HEK-293 cells, 40 μM, read-out: Percentage growth inhibition at 40 μM, HEK-293", "value": 100, "unit": "%"}, {"measurement": "translational inhibitory activity", "setting": "[4]", "value": "none showed significant translational inhibitory activity"}]}]}
